Experimental data as given in patent US20250002954A1, “Novel Compound, Use Thereof, and Method for Producing Same, and Compound-Containing Composition, Method for Producing 4-Trehalosamine, and Microorganism” (Microbial Chemistry Research Foundation, priority 2021, published 2025).

Columns and labels:
[1] = Starch aging inhibiting effect, enzyme assay 3 (potato starch gel); conditions: final concentration 10% or 15% (w/w), 48 and 96 hours
Experimental: Starch aging inhibiting effect was determined in a similar manner to the <Enzyme assay 1> except that the “—Preparation of measurement samples—” and “—Determination of starch aging inhibiting effect—” in the <Enzyme assay 1> were changed to the methods below.
The 4-trehalosamine (4TA) obtained in production example 10, and trehalose (TRH), sucrose (SCR), and glycerol (GOL) were each dissolved in water to a final concentration of 10% (w/w) or 15% (w/w), thus preparing aqueous solutions. Into each of the aqueous solutions containing the different sugars or water as control, potato starch (manufactured by Yoshida Pharmaceutical Company Limited) was mixed to a final concentration of 15% (w/w) and suspended uniformly, and the suspension was aliquoted in 33.3 μL volumes to three tubes. […]
Starch aging inhibiting effect was determined in a similar manner to the “—Determination of starch aging inhibiting effect—” of the <Enzyme assay 1> except that measurement of absorbance at 660 nm was changed to measurement of absorbance at 620 nm in the “—Determination of starch aging inhibiting effect—” of the <Enzyme assay 1>, and that quantification (absorbance measurement) of enzyme reaction and sugar was performed for the 0-hour, 48-hour, and 96-hour samples in the quantification (absorbance measurement) of enzyme reaction and sugar. […]

[2] = Starch aging inhibiting effect, enzyme assay 4 (rice flour gel); conditions: final concentration 10% or 15% (w/w), 48 and 96 hours
Experimental: Starch aging inhibiting effect was determined in a similar manner to the <Enzyme assay 3> except that potato starch was changed to rice flour (manufactured by OSAWA JAPAN) in the “—Preparation of measurement samples—” of the <Enzyme assay 3>. The results for the 10% (w/w) final concentration of the different sugars are shown in FIG. 15G, and the results for the 15% (w/w) final concentration of the different sugars are shown in FIG. 15H.

[3] = Starch aging inhibiting effect, enzyme assay 5 (wheat flour gel); conditions: final concentration 10% or 15% (w/w), 48 and 96 hours
Experimental: Starch aging inhibiting effect was determined in a similar manner to the <Enzyme assay 3> except that potato starch was changed to wheat flour (organic wheat flour, from Kanazawa Daichi) in the “—Preparation of measurement samples—” of the <Enzyme assay 3>. The results for the 10% (w/w) final concentration of the different sugars are shown in FIG. 15I, and the results for the 15% (w/w) final concentration of the different sugars are shown in FIG. 15J.

[4] = system: autophagy-related transcription factor EB (TFEB) in OVK18 and Mewo cells; test: Elevated expression and nuclear localization of TFEB (western blotting, immunostaining); format: cell-based, human; conditions: 50 mM 4-trehalosamine, 100 μM IMCTA-C14 or 100 mM trehalose, 14 hours
Experimental: Elevated expression and nuclear localization of autophagy-related transcription factor EB (TFEB) when human ovarian cancer cells or human malignant melanoma cells were treated with 4-trehalosamine or trehalose analog were determined by western blotting and immunostaining.
Fractionation of nuclear and cytoplasm was performed in the following manner using buffer that was a modification of the buffer according to the report of Dignam et al. (J. D. Dignam et al., Nucleic Acids Res, 1983, 11 (5), p. 1475-1489).
Human ovarian cancer cells OVK18 (obtained from RIKEN BRC) and human malignant melanoma cells Mewo (JCRB0066) were each inoculated on a 6-well plate at 2×10^5 cells/2 mL/well, and cultured in DMEM culture medium at 37° C. for 48 hours. After that, as with test example 10-1, a half of the culture fluid in each well was taken, and each compound was dissolved so that the final concentration is 50 mM 4-trehalosamine, 50 µM IMCTA-C14, 100 μM IMCTA-C14, or 100 mM trehalose. After dissolving it sufficiently, the cells were returned to the original well and treated at 37° C. for 14 hours. Untreated cells without addition of the compounds were used as control. […]
The protein concentration of each fraction was measured with protein quantification reagent (XL-Bradford, integrale) and the amount of expression of TFEB in each fraction was examined by western blotting. […]

Compound: N[C@H]1[C@H](O)[C@@H](O)[C@@H](O[C@H]2O[C@H](CO)[C@@H](O)[C@H](O)[C@H]2O)O[C@@H]1CO [4-trehalosamine]
- rate of degradation by β-amylase (starch aging inhibiting effect) [1]: significantly high rate of degradation by β-amylase at and after 48 hours compared to the other gels
- rate of degradation by β-amylase (starch aging inhibiting effect) [2]: significantly high rate of degradation by β-amylase at and after 48 hours compared to the other gels
- rate of degradation by β-amylase (starch aging inhibiting effect) [3]: significantly high rate of degradation by β-amylase at and after 48 hours compared to the other gels
- expression and nuclear localization of TFEB [4]: elevated expression and nuclear localization of TFEB
